Data on 26 compounds can be found in ChEMBL document CHEMBL4706474, “Tetrahydro-2-naphthyl and 2-Indanyl Triazolopyrimidines Targeting Plasmodium falciparum Dihydroorotate Dehydrogenase Display Potent and Selective Antimalarial Activity” (J Med Chem, 2016).

≈ marks a conversion by molar mass, not a printed value.

The nature of data set [1]: Inhibition of N-terminal His6-tagged Plasmodium falciparum DHODH expressed in Escherichia coli BL21 using L-DHO as substrate and CoQ as co-substrate by DCIP dye based spectrophotometric assay.
Data set [2] relates to Plasmodium falciparum. Kind of data set: Antiplasmodial activity against Plasmodium falciparum 3D7 infected in RBC assessed as reduction in parasitemia incubated for 72 hrs by SYBR green dye-based assay. The format is functional, organism-based.
Data set [3] in a line: Inhibition of N-terminal His6-tagged Plasmodium vivax DHODH expressed in Escherichia coli BL21 using L-DHO as substrate and CoQ as co-substrate by DCIP dye based spectrophotometric assay.
Data set [4] concerns the target Dihydroorotate dehydrogenase (quinone), mitochondrial (Homo sapiens, UniProt Q02127). The data set can be described thus: Inhibition of N-terminal His6-tagged human DHODH expressed in Escherichia coli BL21 using L-DHO as substrate and CoQ as co-substrate by DCIP dye based spectrophotometric assay.
The nature of data set [5]: Lipophilicity, logD of the compound at pH 7.4. The format is physicochemical. The settings on record: buffer.
A short description of data set [6]: Kinetic solubility of compound in phosphate buffer at pH 6.5 measured after 30 mins by HPLC-UV based analysis. The class given is physicochemical. The settings on record: for solubility kinetic at 0.5 h: phosphate buffer, pH 6.5, read-out: Kinetic_solubility.
Data set [7] is described as follows: Intrinsic clearance in human pooled liver microsomes assessed per mg protein at 1 uM by LC-MS analysis. The class given is ADME, Microsome. Particulars: microsomes, 1 µM.
A short description of data set [8]: Intrinsic clearance in rat liver microsomes assessed per mg protein at 1 uM by LC-MS analysis. The format is ADME, Microsome. Particulars: microsomes, 1 µM.
The nature of data set [9]: Intrinsic clearance in mouse liver microsomes at 1 uM by LC-MS analysis. The format is ADME, Microsome.
The mark [10] stands for this setting: Plasmodium falciparum, 3D7, Erythrocyte, 72 h.

Chain of Dihydroorotate dehydrogenase (quinone), mitochondrial (Q02127 whole entry): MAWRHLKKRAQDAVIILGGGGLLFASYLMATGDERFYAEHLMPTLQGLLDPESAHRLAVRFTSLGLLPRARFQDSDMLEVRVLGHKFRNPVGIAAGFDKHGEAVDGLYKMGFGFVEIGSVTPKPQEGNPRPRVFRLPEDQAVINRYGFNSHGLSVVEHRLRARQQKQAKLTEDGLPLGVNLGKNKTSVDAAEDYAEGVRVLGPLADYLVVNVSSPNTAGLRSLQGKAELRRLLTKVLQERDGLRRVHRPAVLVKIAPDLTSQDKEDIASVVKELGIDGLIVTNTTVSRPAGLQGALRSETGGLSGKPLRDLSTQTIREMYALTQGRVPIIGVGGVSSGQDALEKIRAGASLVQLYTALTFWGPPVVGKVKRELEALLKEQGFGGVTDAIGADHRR

As for `Cc1cc(NC2Cc3cc(Cl)c(Cl)cc3C2)n2nc(C(C)(F)F)nc2n1`, in data set [1], the IC50 came to 140 nM. Moreover, the EC50 in [2] (setting [10]) was 580 nM.

`COc1ccc2c(c1)CC(Nc1cc(C)nc3nc(C(C)(F)F)nn13)CC2` (stereo in doubt; 17) showed an IC50 in data set [1] of 1000 nM. The EC50 in data set [2] (rbc) worked out at 640 nM.

Take `Cc1cc(NC2CCc3cc(C(F)(F)F)c(F)cc3C2)n2nc(C(C)(F)F)nc2n1` (stereo not drawn): the IC50 in [1] was 87 nM; in data set [3], 820 nM; in [4], > 100000 nM. Also, the concentration for a half-maximal effect (EC50) in data set [2] (setting [10]) was 3300 nM. In data set [5], the logD came to 4.1. For the same compound, the solubility kinetic at 0.5 h in data set [6] stood at 1.6 µg/mL (≈ 3.73 µM). Moreover, the microsomal intrinsic clearance in data set [7] is < 7 µL/min. Moreover, in [8], the “Intrinsic clearance in rat liver microsomes (uL/min/mg protein)” value (“Intrinsic clearance … (uL/min/mg protein)” below) was < 7 µL/min. In addition, in data set [9], the intrinsic clearance is < 7 µL/min.

For `Cc1cc(NC2Cc3c(F)ccc(F)c3C2)n2nc(C(C)(F)F)nc2n1`, the results for the IC50 in data set [1], in data set [3] and in data set [4] were 65 nM, 150 nM and > 100000 nM, respectively. The EC50 in [2] (setting [10]) turned out to be 46 nM. For the same compound, the logD in data set [5] stood at 3.2. The solubility kinetic at 0.5 h in [6] turned out to be 6.3 µg/mL (≈ 17.2 µM). The microsomal intrinsic clearance in data set [7] is 33 µL/min. In [8], the “Intrinsic clearance … (uL/min/mg protein)” value was 1013 µL/min. The compound further came in with an intrinsic clearance in data set [9] of 1500 µL/min.

Turning to `Cc1cc(NC2CCc3ccc(Cl)cc3C2)n2nc(C(F)(F)F)nc2n1` (stereo in doubt; 25), 1100 nM corresponded to half-maximal inhibition in data set [1] (IC50). For the same compound, in data set [2] (rbc), the EC50 worked out at 1500 nM.

For `Cc1cc(NC2CCc3cc(F)c(F)cc3C2)n2nc(C(C)(F)F)nc2n1` (stereo in doubt; 19), the IC50 in data set [1] was 60 nM; in data set [3], 71 nM. In data set [2] (rbc), the EC50 came to 22 nM. Moreover, in [7], the microsomal intrinsic clearance worked out at 11 µL/min. In data set [8], the “Intrinsic clearance … (uL/min/mg protein)” value stood at 24 µL/min. The compound also registered an intrinsic clearance in data set [9] of 59 µL/min.

In the case of `Cc1cc(NC2CCc3cc(F)ccc3C2)n2nc(C(C)(F)F)nc2n1` (stereo not drawn), the IC50 in data set [4] was > 100000 nM. The logD in [5] is 3.5. Besides, the solubility kinetic at 0.5 h in data set [6] is 6.3 µg/mL (≈ 17.4 µM). The microsomal intrinsic clearance in data set [7] is 14 µL/min. Moreover, in [8], the “Intrinsic clearance … (uL/min/mg protein)” value came out at 39 µL/min. In data set [9], this compound registered an intrinsic clearance of 122 µL/min.

As to `Cc1cc(NC2CCc3ccccc3C2)n2nc(C(F)(F)F)nc2n1` (stereo not drawn), the IC50 was 170 nM in data set [1] and > 100000 nM in [4]. Besides, the EC50 in data set [2] (setting [10]) turned out to be 21 nM.

The compound `Cc1cc(NC2CCc3cc(F)c(F)cc3C2)n2nc(C(C)(F)F)nc2n1` (stereo in doubt; 18) returned an IC50 in data set [1] of 2300 nM. Further, the EC50 in data set [2] (rbc) was > 2500 nM.

Compound `Cc1cc(NC2CCc3ccc(Br)cc3C2)n2nc(C(C)(F)F)nc2n1` (stereo in doubt; 14) showed an IC50 in data set [1] of 640 nM. Further, the EC50 in [2] (rbc) was found to be 1400 nM.

With `Cc1cc(NC2CCc3cc(F)c(C(F)(F)F)cc3C2)n2nc(C(C)(F)F)nc2n1` (stereo not drawn), the IC50 is 89 nM in [1], 390 nM in data set [3] and > 100000 nM in data set [4]. Besides, the EC50 in data set [2] (setting [10]) was 97 nM. The logD in data set [5] amounted to 4. In addition, the solubility kinetic at 0.5 h in [6] stood at 3.1 µg/mL (≈ 7.22 µM). Besides, in data set [7], the microsomal intrinsic clearance is < 7 µL/min. Besides, the “Intrinsic clearance … (uL/min/mg protein)” value in data set [8] was 13 µL/min. In [9], this compound returned an intrinsic clearance of 17 µL/min.

Compound `Cc1cc(NC2Cc3cc(F)c(F)cc3C2)n2nc(C(F)(F)F)nc2n1` returned an IC50 in [1] of 120 nM. The EC50 in [2] (setting [10]) came out at 150 nM.

For the compound `Cc1cc(NC2CCc3cc(Br)ccc3C2)n2nc(C(C)(F)F)nc2n1` (stereo in doubt; 12), the IC50 worked out at 790 nM in [1] and 2100 nM in [3]. Moreover, in data set [2] (rbc), the EC50 turned out to be 140 nM. The compound further registered a Kinetic_solubility in data set [6] (buffer, pH 6.5, 0.5 h) of 3.1 µg/mL. In addition, in data set [7], the microsomal intrinsic clearance was < 7 µL/min. In data set [9], the intrinsic clearance amounted to 40 µL/min.

As for `Cc1cc(NC2Cc3cccc(F)c3C2)n2nc(C(C)(F)F)nc2n1` (stereo not drawn), the values for the IC50 in data set [1], in [3] and in data set [4] were 52 nM, 300 nM and > 100000 nM, respectively. Besides, the EC50 in data set [2] (setting [10]) stood at 64 nM. In [5], this compound registered a logD of 3.3. The solubility kinetic at 0.5 h in data set [6] worked out at 12.5 µg/mL (≈ 36 µM). Moreover, in data set [7], the microsomal intrinsic clearance is 11 µL/min. In data set [8], the “Intrinsic clearance … (uL/min/mg protein)” value is 72 µL/min. This compound also registered an intrinsic clearance in [9] of 76 µL/min.

`Cc1cc(NC2Cc3ccc(Cl)cc3C2)n2nc(C(C)(F)F)nc2n1` (stereo not drawn): the IC50 in data set [1] was determined as 85 nM. The EC50 in data set [2] (setting [10]) turned out to be 120 nM. The logD in data set [5] came to 3.5. Also, in data set [6], the solubility kinetic at 0.5 h was determined as 6.3 µg/mL (≈ 17.3 µM). Besides, in data set [7], the microsomal intrinsic clearance amounted to 10 µL/min. Further, the “Intrinsic clearance … (uL/min/mg protein)” value in [8] was found to be 54 µL/min. The intrinsic clearance in [9] worked out at 43 µL/min.

Take `Cc1cc(NC2Cc3ccc(S(=O)(=O)N(C)C)cc3C2)n2nc(C(C)(F)F)nc2n1` (stereo not drawn): in [1], the IC50 worked out at 8000 nM.

Regarding `Cc1cc(N[C@@H]2CCc3ccc(Cl)cc3C2)n2nc(C(C)(F)F)nc2n1`, the IC50 was 790 nM in [1] and > 100000 nM in data set [4]. The EC50 in [2] (setting [10]) amounted to 2800 nM.

The compound `Cc1cc(NC2Cc3ccc(Br)cc3C2)n2nc(C(C)(F)F)nc2n1` (stereo not drawn) gave an IC50 in [1] of 110 nM. The EC50 in data set [2] (setting [10]) came out at 590 nM.

Regarding `COc1ccc2c(c1)CC(Nc1cc(C)nc3nc(C(C)(F)F)nn13)CC2` (stereo in doubt; 16), the IC50 is 21 nM in data set [1] and 130 nM in [3]. Further, in [2] (rbc), the EC50 amounted to 25 nM. The compound further came in with a logD in [5] of 3.3. For the same compound, the solubility kinetic at 0.5 h in data set [6] was 12.5 µg/mL (≈ 33.5 µM). Also, in [7], the microsomal intrinsic clearance is 18 µL/min. Further, the “Intrinsic clearance … (uL/min/mg protein)” value in data set [8] is 19 µL/min. The compound further had an intrinsic clearance in [9] of 25 µL/min.

With `Cc1cc(NC2CCc3ccc(Cl)cc3C2)n2nc(C(F)(F)F)nc2n1` (stereo in doubt; 24), in [1], the IC50 worked out at 15 nM. In addition, in [2] (rbc), the half-maximal effective concentration (EC50) came to 33 nM. The same compound gave a logD in [5] of 4.1. Also, the solubility kinetic at 0.5 h in data set [6] worked out at 1.6 µg/mL (≈ 4.19 µM). The compound also registered a microsomal intrinsic clearance in [7] of 9 µL/min. For the same compound, in data set [9], the intrinsic clearance is 24 µL/min.

Regarding `COc1ccc2c(c1)CCC(Nc1cc(C)nc3nc(C(C)(F)F)nn13)C2` (stereo not drawn), the IC50 was 140 nM in [1], 220 nM in data set [3] and > 100000 nM in data set [4]. Moreover, in [2] (setting [10]), the EC50 came to 17 nM.

Regarding `Cc1cc(NC2CCc3cc(Cl)ccc3C2)n2nc(C(C)(F)F)nc2n1` (stereo in doubt; 8), in data set [1], inhibition was half-maximal at 1340 nM (IC50). The EC50 in data set [2] (rbc) amounted to 420 nM.

In the case of `Cc1cc(NC2CCc3ccccc3C2)n2nc(C(C)(F)F)nc2n1` (stereo not drawn), the IC50 in data set [1] is 21 nM; in [3], 35 nM. The EC50 in data set [2] (setting [10]) was 2.8 nM.

`Cc1cc(NC2Cc3ccc(S(C)(=O)=O)cc3C2)n2nc(C(C)(F)F)nc2n1` (stereo not drawn) showed an IC50 in [1] of 4000 nM. Moreover, the EC50 in [2] (setting [10]) is 6500 nM.

Turning to `Cc1cc(NC2CCc3cc(F)ccc3C2)n2nc(C(F)(F)F)nc2n1` (stereo not drawn), the IC50 worked out at 77 nM in [1] and 280 nM in [3]. For the same compound, in [2] (setting [10]), the EC50 is 66 nM.

For `Cc1cc(NC2Cc3ccccc3C2)n2nc(C(C)(F)F)nc2n1`, the values for the IC50 in [1] and in data set [4] were 48 nM and > 100000 nM, respectively. Also, the EC50 in data set [2] (setting [10]) was 36 nM. The compound further showed a logD in data set [5] of 3.1. Moreover, the solubility kinetic at 0.5 h in [6] was 25 µg/mL (≈ 75.9 µM). The compound further gave a microsomal intrinsic clearance in data set [7] of 24 µL/min. Moreover, in data set [8], the “Intrinsic clearance … (uL/min/mg protein)” value turned out to be 245 µL/min. The compound further showed an intrinsic clearance in data set [9] of 1004 µL/min.
